According to ChEMBL document CHEMBL3045375, “Synthesis, characterization and biological activity of some new carbostyril bearing 1H-pyrazole moiety” (2012):
≈ marks a conversion by molar mass, not a printed value.

Tests used:
Type in all cases: functional
Bacillus subtilis = assay: Antibacterial activity against Bacillus subtilis MTCC 441 after 24 hr by broth microdilution method
Candida albicans = assay: Antifungal activity against Candida albicans MTCC 227 after 48 hr by broth microdilution method
Escherichia coli = assay: Antibacterial activity against Escherichia coli MTCC 443 after 24 hr by broth microdilution method; settings: MTCC 443, 24 h
Aspergillus fumigatus = assay: Antifungal activity against Aspergillus fumigatus MTCC 3008 after 48 hr by broth microdilution method
Streptococcus pneumoniae = assay: Antibacterial activity against Streptococcus pneumoniae MTCC 1936 after 24 hr by broth microdilution method; settings: MTCC 1936, 24 h

| Molecule | MIC (Bacillus subtilis; MTCC 441, 24 h) [µg/mL] | MIC (Candida albicans; MTCC 227, 48 h) [µg/mL] | MIC (Escherichia coli) [µg/mL] | MIC (Aspergillus fumigatus; MTCC 3008, 48 h) [µg/mL] | MIC (Streptococcus pneumoniae) [µg/mL] | MIC (Candida albicans) [µg/mL] | MIC (Aspergillus fumigatus) [µg/mL] | MIC (Bacillus subtilis) [µg/mL] |
| --- | --- | --- | --- | --- | --- | --- | --- | --- |
| CC1(C)CC(=O)C2=C(C1)N(c1ccc(F)cc1)C(=O)CC2c1cn(-c2ccccc2)nc1-c1ccc(Cl)cc1 (centres undefined) | 0.15 (≈ 0.278 µM) | 1000 (≈ 1850 µM) | 50 (≈ 92.6 µM) | 500 (≈ 926 µM) | 250 (≈ 463 µM) | – | – | – |
| O=C1CCCC2=C1C(c1cn(-c3ccccc3)nc1-c1ccc(Br)cc1)CC(=O)N2c1ccc(F)cc1 (centres undefined) | 0.5 (≈ 0.899 µM) | 500 (≈ 899 µM) | 62.5 (≈ 112 µM) | > 1000 | 250 (≈ 449 µM) | – | – | – |
| COc1ccc(-c2nn(-c3ccccc3)cc2C2CC(=O)N(c3ccc(F)cc3)C3=C2C(=O)CCC3)cc1 (centres undefined) | 0.5 (≈ 0.985 µM) | 1000 (≈ 1970 µM) | 100 (≈ 197 µM) | 500 (≈ 985 µM) | 250 (≈ 493 µM) | – | – | – |
| CC1(C)CC(=O)C2=C(C1)N(c1ccc(F)cc1)C(=O)CC2c1cn(-c2ccccc2)nc1-c1ccc(F)cc1 (centres undefined) | 0.5 (≈ 0.955 µM) | 500 (≈ 955 µM) | 150 (≈ 286 µM) | 1000 (≈ 1910 µM) | 500 (≈ 955 µM) | – | – | – |
| CC1(C)S[C@@H]2[C@H](NC(=O)[C@H](N)c3ccccc3)C(=O)N2[C@H]1C(=O)O [AMPICILLIN] | 0.25 (≈ 0.715 µM) | – | 100 (≈ 286 µM) | – | 100 (≈ 286 µM) | – | – | – |
| NYSTATIN | – | – | – | – | – | 100 | 100 | – |
| CC1(C)CC(=O)C2=C(C1)N(c1ccc(F)cc1)C(=O)CC2c1cn(-c2ccccc2)nc1-c1ccc(Br)cc1 (centres undefined) | 0.5 (≈ 0.855 µM) | 100 (≈ 171 µM) | 500 (≈ 855 µM) | 100 (≈ 171 µM) | 250 (≈ 428 µM) | – | – | – |
| O=C1CCCC2=C1C(c1cn(-c3ccccc3)nc1-c1ccc([N+](=O)[O-])cc1)CC(=O)N2c1ccc(F)cc1 (centres undefined) | 0.2 (≈ 0.383 µM) | 500 (≈ 957 µM) | 62.5 (≈ 120 µM) | 1000 (≈ 1910 µM) | 100 (≈ 191 µM) | – | – | – |
| O=C(O)c1cn(C2CC2)c2cc(N3CCNCC3)c(F)cc2c1=O [CIPROFLOXACIN] | 0.05 (≈ 0.151 µM) | – | 25 (≈ 75.4 µM) | – | 50 (≈ 151 µM) | – | – | – |
| GENTAMICIN | – | – | – | – | – | – | – | 0.001 |
| COC1=CC(=O)C[C@@H](C)[C@]12Oc1c(Cl)c(OC)cc(OC)c1C2=O [GRISEOFULVIN] | – | 500 (≈ 1420 µM) | – | 100 (≈ 283 µM) | – | – | – | – |
| Cc1ccc(-c2nn(-c3ccccc3)cc2C2CC(=O)N(c3ccc(F)cc3)C3=C2C(=O)CCC3)cc1 (centres undefined) | 0.25 (≈ 0.509 µM) | 1000 (≈ 2030 µM) | 250 (≈ 509 µM) | 500 (≈ 1020 µM) | 100 (≈ 203 µM) | – | – | – |
| CC1(C)CC(=O)C2=C(C1)N(c1ccc(F)cc1)C(=O)CC2c1cn(-c2ccccc2)nc1-c1cccs1 (centres undefined) | 0.25 (≈ 0.489 µM) | 500 (≈ 977 µM) | 200 (≈ 391 µM) | 1000 (≈ 1950 µM) | 500 (≈ 977 µM) | – | – | – |
| O=C1CCCC2=C1C(c1cn(-c3ccccc3)nc1-c1cccs1)CC(=O)N2c1ccc(F)cc1 (centres undefined) | 0.25 (≈ 0.517 µM) | 500 (≈ 1030 µM) | 100 (≈ 207 µM) | 1000 (≈ 2070 µM) | 200 (≈ 414 µM) | – | – | – |
| Cc1ccc(-c2nn(-c3ccccc3)cc2C2CC(=O)N(c3ccc(F)cc3)C3=C2C(=O)CC(C)(C)C3)cc1 (centres undefined) | 0.5 (≈ 0.962 µM) | 500 (≈ 962 µM) | 500 (≈ 962 µM) | 500 (≈ 962 µM) | 100 (≈ 192 µM) | – | – | – |
| CC1(C)CC(=O)C2=C(C1)N(c1ccc(F)cc1)C(=O)CC2c1cn(-c2ccccc2)nc1-c1ccc([N+](=O)[O-])cc1 (centres undefined) | 0.25 (≈ 0.454 µM) | 1000 (≈ 1820 µM) | 100 (≈ 182 µM) | 1000 (≈ 1820 µM) | 250 (≈ 454 µM) | – | – | – |
| COc1ccc(-c2nn(-c3ccccc3)cc2C2CC(=O)N(c3ccc(F)cc3)C3=C2C(=O)CC(C)(C)C3)cc1 (centres undefined) | 0.2 (≈ 0.373 µM) | 1000 (≈ 1870 µM) | 250 (≈ 467 µM) | 1000 (≈ 1870 µM) | 100 (≈ 187 µM) | – | – | – |
| O=C1CCCC2=C1C(c1cn(-c3ccccc3)nc1-c1ccccc1)CC(=O)N2c1ccc(F)cc1 (centres undefined) | 0.5 (≈ 1.05 µM) | > 1000 | 500 (≈ 1050 µM) | > 1000 | 500 (≈ 1050 µM) | – | – | – |
| CC1(C)CC(=O)C2=C(C1)N(c1ccc(F)cc1)C(=O)CC2c1cn(-c2ccccc2)nc1-c1ccccc1 (centres undefined) | 0.2 (≈ 0.396 µM) | 500 (≈ 989 µM) | 500 (≈ 989 µM) | 500 (≈ 989 µM) | 150 (≈ 297 µM) | – | – | – |
| O=C1CCCC2=C1C(c1cn(-c3ccccc3)nc1-c1ccc(Cl)cc1)CC(=O)N2c1ccc(F)cc1 (centres undefined) | 0.25 (≈ 0.488 µM) | 500 (≈ 977 µM) | 100 (≈ 195 µM) | > 1000 | 250 (≈ 488 µM) | – | – | – |
| O=C(N[C@H](CO)[C@H](O)c1ccc([N+](=O)[O-])cc1)C(Cl)Cl [CHLORAMPHENICOL] | 0.05 (≈ 0.155 µM) | – | 50 (≈ 155 µM) | – | 50 (≈ 155 µM) | – | – | – |
| O=C1CCCC2=C1C(c1cn(-c3ccccc3)nc1-c1ccc(F)cc1)CC(=O)N2c1ccc(F)cc1 (centres undefined) | 0.1 (≈ 0.202 µM) | 500 (≈ 1010 µM) | 250 (≈ 505 µM) | 1000 (≈ 2020 µM) | 200 (≈ 404 µM) | – | – | – |
